Reference: the NIST ThermoML archive (doi:10.1021/je900596d)
Numbers after ± are expanded uncertainties.

Details: 343.18 K, Liquid, Vibrating tube method

SMILES: FC(F)=C(F)C(F)(F)F [hexafluoropropene]
- mass density (2323.3 kPa): 1027.29 ± 1.1 kg/m3
- mass density (2331.8 kPa): 1027.71 ± 1.1 kg/m3
- mass density (2340.3 kPa): 1028.3 ± 1.1 kg/m3
- mass density (2348.6 kPa): 1028.71 ± 1.1 kg/m3
- mass density (2357.9 kPa): 1029.39 ± 1.1 kg/m3
- mass density (2367.9 kPa): 1029.94 ± 1.1 kg/m3
- mass density (2376.2 kPa): 1030.38 ± 1.1 kg/m3
- mass density (2386.7 kPa): 1030.85 ± 1.1 kg/m3
- mass density (2396.9 kPa): 1031.35 ± 1.1 kg/m3
- mass density (2403.7 kPa): 1031.5 ± 1.1 kg/m3
- mass density (2413.7 kPa): 1032.28 ± 1.1 kg/m3
- mass density (2426.4 kPa): 1032.67 ± 1.2 kg/m3
- mass density (2437.3 kPa): 1033.33 ± 1.2 kg/m3
- mass density (2447 kPa): 1034.04 ± 1.2 kg/m3
- mass density (2457.9 kPa): 1034.52 ± 1.2 kg/m3
- mass density (2464 kPa): 1034.92 ± 1.2 kg/m3
- mass density (2470.6 kPa): 1035.47 ± 1.2 kg/m3
- mass density (2480.5 kPa): 1035.86 ± 1.2 kg/m3
- mass density (2486.7 kPa): 1036.28 ± 1.1 kg/m3
- mass density (2497.1 kPa): 1037.07 ± 1.1 kg/m3
- mass density (2503.3 kPa): 1037.46 ± 1.1 kg/m3
- mass density (2522.8 kPa): 1038.69 ± 1.1 kg/m3
- mass density (2540.4 kPa): 1039.48 ± 1.1 kg/m3
- mass density (2556.8 kPa): 1040.31 ± 1.1 kg/m3
- mass density (2578.1 kPa): 1041.52 ± 1.1 kg/m3
- mass density (2596.9 kPa): 1042.44 ± 1.1 kg/m3
- mass density (2616.9 kPa): 1043.45 ± 1.1 kg/m3
- mass density (2632.9 kPa): 1044.34 ± 1.1 kg/m3
- mass density (2650.6 kPa): 1045.42 ± 1.1 kg/m3
- mass density (2671.6 kPa): 1046.57 ± 1.1 kg/m3
- mass density (2693 kPa): 1047.89 ± 1.1 kg/m3
- mass density (2710.6 kPa): 1048.77 ± 1.1 kg/m3
- mass density (2730.2 kPa): 1049.48 ± 1.1 kg/m3
- mass density (2747.6 kPa): 1050.19 ± 1.1 kg/m3
- mass density (2764.4 kPa): 1050.73 ± 1.1 kg/m3
- mass density (2782.1 kPa): 1051.54 ± 1.1 kg/m3
- mass density (2799.6 kPa): 1052.3 ± 1.1 kg/m3
- mass density (2815.7 kPa): 1053.03 ± 1.1 kg/m3
- mass density (2831.9 kPa): 1053.99 ± 1.1 kg/m3
- mass density (2852.2 kPa): 1055 ± 1.1 kg/m3
- mass density (2887.1 kPa): 1056.99 ± 1.1 kg/m3
- mass density (2909.8 kPa): 1058.07 ± 1.1 kg/m3
- mass density (2930.4 kPa): 1058.89 ± 1.1 kg/m3
- mass density (2950.3 kPa): 1059.55 ± 1.1 kg/m3
- mass density (2967.4 kPa): 1060.2 ± 1.1 kg/m3
- mass density (2986 kPa): 1061.16 ± 1.1 kg/m3
- mass density (3013.7 kPa): 1062.17 ± 1.1 kg/m3
- mass density (3046.6 kPa): 1063.75 ± 1.1 kg/m3
- mass density (3078.2 kPa): 1064.77 ± 1.1 kg/m3
- mass density (3103.6 kPa): 1065.88 ± 1.1 kg/m3
- mass density (3134.8 kPa): 1067.08 ± 1.1 kg/m3
- mass density (3168.5 kPa): 1068.48 ± 1.1 kg/m3
- mass density (3201.9 kPa): 1069.74 ± 1.1 kg/m3
- mass density (3235.7 kPa): 1071.04 ± 1.1 kg/m3
- mass density (3266.7 kPa): 1072.23 ± 1.1 kg/m3
- mass density (3300.3 kPa): 1073.66 ± 1.1 kg/m3
- mass density (3332 kPa): 1075.03 ± 1.1 kg/m3
- mass density (3361.4 kPa): 1076.36 ± 1.1 kg/m3
- mass density (3394.9 kPa): 1077.6 ± 1.1 kg/m3
- mass density (3430.3 kPa): 1078.63 ± 1.1 kg/m3
- mass density (3463.3 kPa): 1079.82 ± 1.1 kg/m3
- mass density (3496.3 kPa): 1081.01 ± 1.1 kg/m3
- mass density (3518.3 kPa): 1081.82 ± 1.2 kg/m3
- mass density (3550.7 kPa): 1083.01 ± 1.1 kg/m3
- mass density (3586.6 kPa): 1084.11 ± 1.2 kg/m3
- mass density (3619.2 kPa): 1085.32 ± 1.1 kg/m3
- mass density (3651.4 kPa): 1086.39 ± 1.2 kg/m3
- mass density (3686 kPa): 1087.66 ± 1.1 kg/m3
- mass density (3728.2 kPa): 1089.03 ± 1.1 kg/m3
- mass density (3764.5 kPa): 1090.25 ± 1.1 kg/m3
- mass density (3805.5 kPa): 1091.78 ± 1.1 kg/m3
- mass density (3846.6 kPa): 1092.95 ± 1.1 kg/m3
- mass density (3882.5 kPa): 1093.89 ± 1.1 kg/m3
- mass density (3923.8 kPa): 1095.4 ± 1.2 kg/m3
- mass density (3956.8 kPa): 1096.28 ± 1.1 kg/m3
- mass density (3999.1 kPa): 1097.44 ± 1.1 kg/m3
- mass density (4049.2 kPa): 1099.28 ± 1.1 kg/m3
- mass density (4092.3 kPa): 1100.59 ± 1.1 kg/m3
- mass density (4134.3 kPa): 1101.91 ± 1.1 kg/m3
- mass density (4183.8 kPa): 1102.89 ± 1.1 kg/m3
- mass density (4226.9 kPa): 1104.11 ± 1.1 kg/m3
- mass density (4279.1 kPa): 1105.63 ± 1.1 kg/m3
- mass density (4326.3 kPa): 1106.67 ± 1.1 kg/m3
- mass density (4369.2 kPa): 1107.87 ± 1.2 kg/m3
- mass density (4410.8 kPa): 1109.1 ± 1.2 kg/m3
- mass density (4451.8 kPa): 1110.42 ± 1.1 kg/m3
- mass density (4504 kPa): 1111.78 ± 1.1 kg/m3
- mass density (4556.4 kPa): 1112.8 ± 1.2 kg/m3
- mass density (4599.1 kPa): 1114.05 ± 1.2 kg/m3
- mass density (4697.6 kPa): 1116.51 ± 1.1 kg/m3
- mass density (4742.5 kPa): 1117.74 ± 1.2 kg/m3
- mass density (4786.3 kPa): 1118.99 ± 1.2 kg/m3
- mass density (4833.9 kPa): 1120.08 ± 1.1 kg/m3
- mass density (4887.4 kPa): 1121.18 ± 1.1 kg/m3
- mass density (4933.1 kPa): 1122.24 ± 1.1 kg/m3
- mass density (4985.1 kPa): 1123.76 ± 1.2 kg/m3
- mass density (5029 kPa): 1124.72 ± 1.2 kg/m3
- mass density (5073.9 kPa): 1125.85 ± 1.1 kg/m3
- mass density (5132.4 kPa): 1127.18 ± 1.2 kg/m3
- mass density (5174 kPa): 1128.12 ± 1.2 kg/m3
- mass density (5238.1 kPa): 1129.48 ± 1.2 kg/m3
- mass density (5301.9 kPa): 1130.82 ± 1.2 kg/m3
- mass density (5346.6 kPa): 1131.66 ± 1.2 kg/m3
- mass density (5387.9 kPa): 1132.67 ± 1.2 kg/m3
- mass density (5429.7 kPa): 1133.71 ± 1.2 kg/m3
- mass density (5474 kPa): 1134.83 ± 1.2 kg/m3
- mass density (5517.7 kPa): 1135.51 ± 1.2 kg/m3
- mass density (5596.3 kPa): 1137.23 ± 1.2 kg/m3
- mass density (5658.9 kPa): 1138.61 ± 1.2 kg/m3
- mass density (5702.1 kPa): 1139.38 ± 1.2 kg/m3
- mass density (5743.1 kPa): 1140.46 ± 1.2 kg/m3
- mass density (5803.5 kPa): 1141.76 ± 1.2 kg/m3
- mass density (5846.3 kPa): 1142.59 ± 1.2 kg/m3
- mass density (5891.3 kPa): 1143.58 ± 1.2 kg/m3
- mass density (5933.5 kPa): 1144.39 ± 1.2 kg/m3
- mass density (5995 kPa): 1145.68 ± 1.2 kg/m3
- mass density (6036 kPa): 1146.23 ± 1.2 kg/m3
- mass density (6160 kPa): 1148.79 ± 1.2 kg/m3
- mass density (6218.2 kPa): 1149.66 ± 1.2 kg/m3
- mass density (6324.7 kPa): 1151.65 ± 1.2 kg/m3
- mass density (6365.2 kPa): 1152.43 ± 1.2 kg/m3
- mass density (6407.3 kPa): 1153.32 ± 1.2 kg/m3
- mass density (6470.4 kPa): 1154.32 ± 1.2 kg/m3
- mass density (6550 kPa): 1155.81 ± 1.2 kg/m3
- mass density (6660.8 kPa): 1157.92 ± 1.2 kg/m3
- mass density (6725.9 kPa): 1159.01 ± 1.2 kg/m3
- mass density (6839.7 kPa): 1161.35 ± 1.2 kg/m3
- mass density (6887 kPa): 1162.02 ± 1.2 kg/m3
- mass density (6930.3 kPa): 1162.69 ± 1.2 kg/m3
- mass density (6976.6 kPa): 1163.25 ± 1.2 kg/m3
- mass density (7038.7 kPa): 1164.35 ± 1.2 kg/m3
- mass density (7080.9 kPa): 1165.18 ± 1.2 kg/m3
- mass density (7123.3 kPa): 1165.76 ± 1.2 kg/m3
